Read-outs that look alike come from different tables or passages of the source.
How the values were obtained:
PSA = PSA measurements, LNCaP cells, 1 nM R1881, 2 days; assay type: cell-based, human
Description: Following the incubation period, 150 μl of the media was taken from each well, and PSA levels were quantified using a Cobas e411 analyzer (Roche Applied Science™) according to the manufacturer's instructions. The same instrument was used to analyze serum PSA from mice during the in vivo analysis.

FKBP5 [1] = experiment: Western blot FKBP5 protein in R1-D567 cells; assay type: cell-based, human
Description: (§1) Cell lysates (40 μl) from luciferase assays (96-well plate) were separated on a 10% SDS-polyacrylamide mini gel. Protein was transferred to methanol-charged PVDF membranes and probed with anti-AR441 (mouse, Sigma™) monoclonal primary antibody. Blots were also probed with polyclonal anti-actin (rabbit, Sigma™) to show equal loading and polyclonal anti-PARP/anti-cleaved PARP (rabbit, Sigma™) to test for induction of apoptosis. Lysates from CWR-R1 cells were additionally probed with polyclonal anti-FKBP5 (rabbit, Sigma™) following 2 days of incubation with compounds.

YFP-AR = target: T1, YFP-AR (Homo sapiens, UniProt P10275); experiment: Confocal microscopy of YFP-AR nuclear localization in PC3 cells; assay type: cell-based
T1 construct: plasmids encoding YFP-tagged full-length AR (yellow fluorescent protein, YFP-AR); expressed in transfected cells; host or cells: PC3
T1 sequence (P10275 1-920): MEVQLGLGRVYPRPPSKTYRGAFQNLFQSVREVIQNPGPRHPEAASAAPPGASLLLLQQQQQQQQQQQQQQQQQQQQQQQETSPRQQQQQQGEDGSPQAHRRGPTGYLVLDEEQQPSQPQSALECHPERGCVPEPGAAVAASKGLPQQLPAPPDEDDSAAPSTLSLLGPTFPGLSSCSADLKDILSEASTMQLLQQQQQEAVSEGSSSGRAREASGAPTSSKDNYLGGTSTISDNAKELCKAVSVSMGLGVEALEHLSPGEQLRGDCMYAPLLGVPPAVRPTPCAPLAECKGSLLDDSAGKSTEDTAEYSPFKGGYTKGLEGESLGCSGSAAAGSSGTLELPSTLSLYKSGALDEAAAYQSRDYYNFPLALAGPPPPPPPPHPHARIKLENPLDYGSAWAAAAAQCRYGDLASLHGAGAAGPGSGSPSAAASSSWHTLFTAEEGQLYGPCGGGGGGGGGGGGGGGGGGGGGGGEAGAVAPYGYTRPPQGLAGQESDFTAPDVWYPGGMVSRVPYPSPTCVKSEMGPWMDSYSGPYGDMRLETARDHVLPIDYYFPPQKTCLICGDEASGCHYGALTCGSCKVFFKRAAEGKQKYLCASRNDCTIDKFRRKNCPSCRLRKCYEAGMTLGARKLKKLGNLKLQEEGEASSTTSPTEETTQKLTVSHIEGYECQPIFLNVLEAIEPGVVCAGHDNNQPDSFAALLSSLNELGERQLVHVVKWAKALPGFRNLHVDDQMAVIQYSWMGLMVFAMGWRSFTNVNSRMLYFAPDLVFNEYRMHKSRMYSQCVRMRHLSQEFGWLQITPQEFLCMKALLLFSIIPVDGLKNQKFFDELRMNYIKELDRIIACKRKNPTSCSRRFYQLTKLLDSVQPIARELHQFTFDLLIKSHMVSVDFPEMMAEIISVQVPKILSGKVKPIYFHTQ
Description: Transfection of YFP-AR or YFP-V7 plasmids (100 ng per well) was performed using TT20 (3 μl) for 48 h. […] After aspiration of the media, cells were washed once with PBS and fixed in 4% paraformaldehyde overnight at 4° C., followed by mounting on charged cover slides using DAPI mount (Vector Laboratories).

FKBP5 [2] = experiment: Western blot FKBP5 protein in R1-AD1 cells; assay type: cell-based, human
Description: as §1

AR-V7Y594D = AR-V7Y594D (Homo sapiens, UniProt P10275, Y594D); experiment: ARR3tk-luciferase reporter assay in PC3 cells, AR-V7 Y594D
Chain of AR-V7Y594D (P10275 1-644 isoform P10275-3 Y594D): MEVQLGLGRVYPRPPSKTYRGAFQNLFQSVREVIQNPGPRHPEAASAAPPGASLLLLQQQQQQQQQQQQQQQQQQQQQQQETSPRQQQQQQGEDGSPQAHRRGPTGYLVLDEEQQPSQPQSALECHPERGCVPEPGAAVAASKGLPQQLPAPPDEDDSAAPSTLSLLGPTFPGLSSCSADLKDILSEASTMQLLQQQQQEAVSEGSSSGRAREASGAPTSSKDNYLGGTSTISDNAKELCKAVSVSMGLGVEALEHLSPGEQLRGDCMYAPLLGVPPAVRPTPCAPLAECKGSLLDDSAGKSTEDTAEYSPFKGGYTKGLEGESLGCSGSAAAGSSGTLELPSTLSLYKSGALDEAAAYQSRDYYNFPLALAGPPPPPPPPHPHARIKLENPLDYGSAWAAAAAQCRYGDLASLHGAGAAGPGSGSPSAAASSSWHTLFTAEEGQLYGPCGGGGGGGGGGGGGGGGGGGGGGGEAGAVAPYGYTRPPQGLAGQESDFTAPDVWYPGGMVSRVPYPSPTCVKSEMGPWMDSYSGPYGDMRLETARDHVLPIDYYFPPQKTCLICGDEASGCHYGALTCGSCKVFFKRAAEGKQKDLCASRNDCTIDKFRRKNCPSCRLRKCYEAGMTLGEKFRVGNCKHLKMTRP
Description: Cells were then treated with compounds at various concentrations and 0.1 nMR1881 (in 100% ethanol) for 24 h. […] Cell lysis was carried out with 60 μl of 1X passive lysis buffer/well (Promega™)
20 μl of cell lysate from each well were mixed with 50 μl of luciferase assay reagent (Promega™), and luminescence was recorded on a TECAN™ M200pro plate reader. Luciferase assays with splice variant AR were performed the same way but with only 5 ng of pcDNA3.1 AR-V7 (to limit the high level of AR-V7 expression) and no R1881.

endogenous wild type AR = experiment: ARR3tk-luciferase assay in R1-AD1 cells; assay type: cell-based, human
AR Q592D mutant = target: T2, AR Q592D mutant (Homo sapiens, UniProt P10275, Q592D); experiment: ARR3tk-luciferase reporter assay in PC3 cells, AR Q592D; assay type: cell-based
T2 construct: Full-length human AR (hARWT) or splice variant (AR-V7) was encoded on a pcDNA3.1 expression plasmid; expressed in transfected cells; host or cells: PC3
T2 sequence (P10275 whole entry Q592D, canonical isoform): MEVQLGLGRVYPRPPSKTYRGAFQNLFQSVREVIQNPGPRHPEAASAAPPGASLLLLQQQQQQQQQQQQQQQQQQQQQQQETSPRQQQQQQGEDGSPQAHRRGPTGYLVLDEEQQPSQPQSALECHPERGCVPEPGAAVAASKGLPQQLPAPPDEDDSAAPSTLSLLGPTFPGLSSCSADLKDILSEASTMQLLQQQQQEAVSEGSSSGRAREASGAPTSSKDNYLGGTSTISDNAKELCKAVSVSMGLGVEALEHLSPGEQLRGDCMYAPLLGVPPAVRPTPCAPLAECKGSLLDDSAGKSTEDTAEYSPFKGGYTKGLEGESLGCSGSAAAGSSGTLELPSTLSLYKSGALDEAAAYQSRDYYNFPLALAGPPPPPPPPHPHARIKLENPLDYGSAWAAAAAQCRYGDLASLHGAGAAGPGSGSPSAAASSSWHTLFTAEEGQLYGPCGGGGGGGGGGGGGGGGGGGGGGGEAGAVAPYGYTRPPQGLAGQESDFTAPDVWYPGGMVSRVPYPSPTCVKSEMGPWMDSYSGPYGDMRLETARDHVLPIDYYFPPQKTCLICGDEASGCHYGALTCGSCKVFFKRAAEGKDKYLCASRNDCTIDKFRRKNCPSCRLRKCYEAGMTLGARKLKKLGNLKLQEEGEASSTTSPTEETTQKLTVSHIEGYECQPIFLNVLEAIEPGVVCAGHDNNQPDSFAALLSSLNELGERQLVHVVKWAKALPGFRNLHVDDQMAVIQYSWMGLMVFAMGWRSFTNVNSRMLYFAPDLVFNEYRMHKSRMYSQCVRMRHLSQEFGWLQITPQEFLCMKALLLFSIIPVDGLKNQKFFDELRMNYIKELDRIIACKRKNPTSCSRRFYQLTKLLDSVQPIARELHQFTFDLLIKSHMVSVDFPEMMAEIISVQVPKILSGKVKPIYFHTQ
Description: 8. Mutation Studies: The residues in the predicted binding site were mutated using the Quickchange™ Site-Directed Mutagenesis Kit as per the instructions.
9. Transient Transfection: The PC3/MCF7 cells were seeded into a 96-well plate (2,000 cells/well). After 24 hrs, the wild-type AR (50 ng/well)/AR mutants and AR3TK-luciferase plasmids (1:3) were co-transfected into PC3 cells or ERE-luciferase (50 ng/well) was transfected into MCF7 cells using transfection reagent TT20. 24 hrs after the transfection, the cells were treated with the compounds at various concentrations. And 24 hrs later, the cells were lysed and the reading was taken using a luminometer.

Row | SMILES | IC50 secreted PSA (PSA) | FKBP5 protein expression, R1-D567 cells (FKBP5 [1]) | R1881-stimulated nuclear localization of YFP-AR (YFP-AR; 10 nM R1881, 25 μM compound, 6 h) | nuclear localization of YFP-AR in the absence of R1881 (YFP-AR; 25 μM compound) | FKBP5 protein expression, R1-AD1 cells (FKBP5 [2]) | inhibition of AR-V7Y594D transcriptional activity (AR-V7Y594D) | inhibition of wild type AR transcriptional activity (endogenous wild type AR) | concentration at which Q592D AR is inhibited (AR Q592D mutant; PC3 cells) [µM] | R1881-stimulated nuclear localization of YFP-AR (YFP-AR) | nuclear localization of YFP-AR in the absence of R1881 (YFP-AR) | inhibition of Q592D AR luciferase expression (AR Q592D mutant)
1 | Brc1ncn(-c2csc(N3CCOCC3)n2)c1Br [Compound 14449] | sub-micromolar | reduced | did not prevent R1881-stimulated nuclear localization | could not stimulate any nuclear localization | reduced | could not be inhibited | could inhibit | ≥ 25 |  |  | 
2 | c1ccc(-c2csc(N3CCOCC3)n2)cc1 [Compound 14228, 4-(4-phenylthiazol-2-yl)morpholine] | sub-micromolar | reduced |  |  | reduced | could not be inhibited | could inhibit |  | did not prevent R1881-stimulated nuclear localization | could not stimulate any nuclear localization | not affected

Source: US10011573B2, “Human androgen receptor DNA-binding domain (DBD) compounds as therapeutics and methods for their use” (The University of British Columbia, priority 2014, dated 2018)
